Experimental findings from patent US20110294734A1, “PHARMACEUTICAL COMPOSITIONS COMPRISING TGF-BETA 1 INHIBITOR PEPTIDES” (DIGNA BIOTECH, S.L., priority 2009, published 2011) are described below.

Where two headings read alike, the source gives them in different places. No end group written: not given here.

A short description of this data set: Solubility study of P144. The class given is physicochemical.

As a reminder, the Solubility is the dissolved amount per volume that the medium holds. For the sequence “TSLDASIIWAMMQN [Formula P144, TSLDASIIWAMMQN]”, the Solubility result runs as follows: (Dicloromethane (DCM)) “insoluble”; (Dimethyl sulfoxide (DMSO)) “very soluble”; (Dimethylformamide (DMF)) “insoluble”; (Ethanol) “insoluble”; (Gantrez ® S97 2-5%) “insoluble”; (Glycerol) “insoluble”. Further, the Solubility result reads like this: (Hexane) “insoluble”; (Human albumin 20%, read-out: Solubility) 250 µg/mL; (Hydroxy-propyl-β-cyclodextrin 5%, read-out: Solubility) 250 µg/mL; (PEG 400) “insoluble”; (PLASDONE 5%) “insoluble”; (Pluronic F68 (1-10%)) “insoluble”. The Solubility result by setting is: (Proplylene glycol) “insoluble”; (Sodium deoxycholate 5%) “insoluble”; (Tetrahydrofurane (THF)) “insoluble”; (Urea 10%, read-out: Solubility) 250 µg/mL; (distilled water) “insoluble”.
